Test system: cGATA6-minK co-positive cells
Assay: Whole-cell patch-clamp of hyperpolarization-activated (If) current before and after cesium chloride
Format: cell-based, murine
Conditions: 10 mM cesium chloride, n=16 cells, FIG. 3(E),(F)
Experimental: On the day prior to recording, EBs were dispersed and plated onto glass coverslips coated with 0.1% gelatin. On the following day, coverslips were transferred to a recording chamber mounted on an inverted microscope (Nikon Diaphot-TMD) and superfused with extracellular recording solution. All experiments were conducted at room temperature (22-25° C.). Whole-cell voltage-clamp and current-clamp experiments were carried out using a standard Giga-seal patch-clamp method (Hamill O P et al. Pflugers Arch 391 (1981) 85). Recording electrodes were fabricated from 1.5 mm thin-walled borosilicate glass tubes (#7052. Garner Glass, Claremont, Calif.), using a Flaming-Brown microelectrode puller (P-97, Sutter Instruments, Novato, Calif.) and heat-polished before use. […] Recordings were performed using an Axoclamp 2B patch-clamp amplifier (Axon Instruments, Union City, Calif.). Data were filtered at 2 kHz, and data were acquired using Clampex 8 software (Axon Instruments). […]
In FIG. 3 (B) cGATA6-minK cells with morphologies similar to contracting atrial myocytes display atrial-like action potential waveforms (FIG. 3D). […] (F) Current-voltage relationship for hyperpolarization-activated currents measured in cGATA6-minK co-positive cells before (triangles) and after (squares) treatment with 10 mM cesium chloride. […]

`[Cl-].[Cs+]` [cesium chloride] was tested, and the “sensitivity of hyperpolarization-activated cation current (If) to cesium” value was “cesium-sensitive”.

Reference: patent US7960173B2, “Cardiac conduction system cells and uses thereof” (Board of Supervisors of Louisiana State University and …, priority 2004, dated 2011)
